Assays:
[1] = tested on: MCF-7 (breast adenocarcinoma); assay: MTT assay for cell viability, MCF-7; assay type: cell-based, human; details: Homo sapiens, MCF7, 48 h
Method: (§1) The human cancer cell lines e.g. HepG2 (hepatocellular carcinoma, ATCC® HB-8065™), PC-3 (human prostate cancer cells, ATCC® CRL-1435™), MCF-7 (breast adenocarcinoma, ATCC® […]), and mouse embryo fibroblasts (NIH/3T3, ATCC® CRL-1658™), used in the present study were obtained from the ATCC (American Type Culture Collection, USA and maintained in RPMI 1640 (Roswell Park Memorial Institute, Merck) with 10% FBS (Merck), supplemented with 1% antibiotic and antimycotic solution (Gibco, USA) at 37° C. in a humidified incubator with 5% CO2. All stock solutions of the compounds were prepared in cell culture grade DMSO (dimethyl sulfoxide) and stored at −20° C. Compounds were diluted in culture media prior to use in experiments. Annexin V-FITC apoptosis detection kits were purchased from Calbiochem. MTT dye was procured from Sigma-Aldrich. All the flow cytometry experiments were performed using a FACScan (Becton Dickinson, Mountain View, Calif.) flow cytometer, equipped with a single 488 nm argon laser.
(§2) Cell viability was assessed by MTT assay, which is based on the reduction of MTT by mitochondrial dehydrogenases of viable cells to form a purple formazan product. Briefly, cells (5-6×10^3/well) were plated in 96 well plates. After incubating overnight, the cells were treated with […] different concentrations (100, 50, 20, 10, 5, 2.5, 1.25 μM) in triplicates with the cationic lipidated cordiarimide and intermediates for 48 h. Subsequently, 10 μL of MTT (10 mg/mL) was added to each well and incubated for 3 h. The MTT formazan formed by viable cells was dissolved in 100 μL of DMSO and shaken for 10 min. The absorbance was measured on an ELISA reader. Each test was repeated at least three times. The concentration of the compound which gives the 50% growth inhibition value corresponding to IC50, was calculated using GraphPad prism 5 software. In the present invention we have screened 26 lipidated cordiarimides and the results are described in table 1.

[2] = tested on: mouse embryo fibroblasts (NIH/3T3); assay: MTT assay for cell viability, NIH/3T3; assay type: cell-based; details: NIH3T3, 48 h
Method: as §1, §2

[3] = tested on: HepG2 (hepatocellular carcinoma); assay: MTT assay for cell viability, HepG2; assay type: cell-based, human; details: Homo sapiens, HepG2, 48 h
Method: as §1, §2

[4] = tested on: PC-3 (human prostate cancer cells); assay: MTT assay for cell viability, PC-3; assay type: cell-based; details: Homo sapiens, 48 h
Method: as §1, §2

Compound | IC50 [1] | IC50 [2] | IC50 [3] | IC50 [4]
CCN(CC)CC(=O)NC1CCC(=O)N(CC(=O)c2ccccc2)C1=O (centres unmarked) [Compound 7a, 2-Diethylamino-N-[2,6-dioxo-1-(2-oxo-2-phenyl-ethyl)-piperidin-3-yl]-acetamide] | > 20 µM | > 20 µM | > 20 µM | > 20 µM
CCCN(CCC)CC(=O)NC1CCC(=O)N(CC(=O)c2ccccc2)C1=O (centres unmarked) [Compound 7b, 2-Dipropylamino-N-[2,6-dioxo-1-(2-oxo-2-phenyl-ethyl)-piperidin-3-yl]acetamide] | > 20 µM | > 20 µM | > 20 µM | > 20 µM
CCCCN(CCCC)CC(=O)NC1CCC(=O)N(CC(=O)c2ccccc2)C1=O (centres unmarked) [Compound 7c, 2-Dibutylamino-N-[2,6-dioxo-1-(2-oxo-2-phenyl-ethyl)-piperidin-3-yl]-acetamide] | > 20 µM | > 20 µM | > 20 µM | > 20 µM
CCCCCN(CCCCC)CC(=O)NC1CCC(=O)N(CC(=O)c2ccccc2)C1=O (centres unmarked) [Compound 7d, 2-Dipentylamino-N-[2,6-dioxo-1-(2-oxo-2-phenyl-ethyl)-piperidin-3-yl]-acetamide] | > 20 µM | > 20 µM | 12.5 µM | > 20 µM
CCCCCCN(CCCCCC)CC(=O)NC1CCC(=O)N(CC(=O)c2ccccc2)C1=O (centres unmarked) [Compound 7e, 2-Dihexylamino-N-[2,6-dioxo-1-(2-oxo-2-phenyl-ethyl)-piperidin-3-yl]-acetamide] | 3.85 µM | 3.74 µM | 5.7 µM | > 20 µM
CCCCCCCN(CCCCCCC)CC(=O)NC1CCC(=O)N(CC(=O)c2ccccc2)C1=O (centres unmarked) [Compound 7f, 2-Diheptylamino-N-[2,6-dioxo-1-(2-oxo-2-phenyl-ethyl)-piperidin-3-yl]-acetamide] | 9.33 µM | 8.73 µM | 7.81 µM | > 20 µM
CCCCCCCCN(CCCCCCCC)CC(=O)NC1CCC(=O)N(CC(=O)c2ccccc2)C1=O (centres unmarked) [Compound 7g, 2-Dioctylamino-N-[2,6-dioxo-1-(2-oxo-2-phenyl-ethyl)-piperidin-3-yl]-acetamide] | 10.3 µM | 7.18 µM | 11.6 µM | > 20 µM
CCCCCCCCCN(CCCCCCCCC)CC(=O)NC1CCC(=O)N(CC(=O)c2ccccc2)C1=O (centres unmarked) [Compound 7h, 2Dinonylamino-N-[2,6-dioxo-1-(2-oxo-2-phenyl-ethyl)-piperidin-3-yl]-acetamide] | 19.9 µM | 10.7 µM | > 20 µM | > 20 µM
CCCCCCCCCCN(CCCCCCCCCC)CC(=O)NC1CCC(=O)N(CC(=O)c2ccccc2)C1=O (centres unmarked) [Compound 7i, 2-(Bis-decyl-amino)-N-[2,6-dioxo-1-(2-oxo-2-phenyl-ethyl)-piperidin-3-yl]acetamide] | 14.2 µM | > 20 µM | > 20 µM | > 20 µM
CCCCCCCCCCCN(CCCCCCCCCCC)CC(=O)NC1CCC(=O)N(CC(=O)c2ccccc2)C1=O (centres unmarked) [Compound 7j, N-[2,6-Dioxo-1-(oxo-2-phenyl-ethyl)-piperidine-3-yl]-2-diundecylamino-acetamide] | > 20 µM | > 20 µM | > 20 µM | 17.4 µM
CCCCCCCCCCCCN(CCCCCCCCCCCC)CC(=O)NC1CCC(=O)N(CC(=O)c2ccccc2)C1=O (centres unmarked) [Compound 7k, N-[2,6-Dioxo-1-(oxo-2-phenyl-ethyl)-piperidine-3-yl]-2-didodecylamino-acetamide] | > 20 µM | > 20 µM | > 20 µM | > 20 µM
CCCCCCCCCCCCCN(CCCCCCCCCCCCC)CC(=O)NC1CCC(=O)N(CC(=O)c2ccccc2)C1=O (centres unmarked) [Compound 7l, N-[2,6-Dioxo-1-(oxo-2-phenyl-ethyl)-piperidine-3-yl]-2-ditridecylamino-acetamide] | > 20 µM | > 20 µM | > 20 µM | > 20 µM
CCCCCCCCCCCCCCN(CCCCCCCCCCCCCC)CC(=O)NC1CCC(=O)N(CC(=O)c2ccccc2)C1=O (centres unmarked) [Compound 7m, N-[2,6-Dioxo-1-(oxo-2-phenyl-ethyl)-piperidine-3-yl]-2-ditetradecylamino-acetamide] | > 20 µM | > 20 µM | > 20 µM | > 20 µM
CC[N+](C)(CC)CC(=O)NC1CCC(=O)N(CC(=O)c2ccccc2)C1=O (centres unmarked) [Compound 8a, {[2,6-Dioxo-1-(2-oxo-2-phenyl-ethyl)-piperidin-3-ylcarbamoyl]-methyl}-Diethyl-methyl-ammonium iodide] | > 20 µM | > 20 µM | > 20 µM | > 20 µM
CCC[N+](C)(CCC)CC(=O)NC1CCC(=O)N(CC(=O)c2ccccc2)C1=O (centres unmarked) [Compound 8b, Dipropylamm{[2,6-Dioxo-1-(2-oxo-2-phenyl-ethyl)-piperidin-3-ylcarbamoyl]-methyl}-methyl-ammonium iodide] | > 20 µM | > 20 µM | > 20 µM | > 20 µM
CCCC[N+](C)(CCCC)CC(=O)NC1CCC(=O)N(CC(=O)c2ccccc2)C1=O (centres unmarked) [Compound 8c, Dibutyl-{[2,6-dioxo-1-(2-oxo-2-phenyl-ethyl)-piperidin-3-ylcarbamoyl]-methyl}-methyl-ammonium iodide] | > 20 µM | > 20 µM | > 20 µM | > 20 µM
CCCCC[N+](C)(CCCCC)CC(=O)NC1CCC(=O)N(CC(=O)c2ccccc2)C1=O (centres unmarked) [Compound 8d, {[2,6-Dioxo-1-(2-oxo-2-phenyl-ethyl)-piperidin-3-ylcarbamoyl]-methyl}-Methyl-dipentyl-ammonium iodide] | > 20 µM | > 20 µM | > 20 µM | > 20 µM
CCCCCC[N+](C)(CCCCCC)CC(=O)NC1CCC(=O)N(CC(=O)c2ccccc2)C1=O (centres unmarked) [Compound 8e, {[2,6-Dioxo-1-(2-oxo-2-phenyl-ethyl)-piperidin-3-ylcarbamoyl]-methyl}-Dihexyl-methyl-ammonium iodide] | > 20 µM | > 20 µM | > 20 µM | > 20 µM
CCCCCCC[N+](C)(CCCCCCC)CC(=O)NC1CCC(=O)N(CC(=O)c2ccccc2)C1=O (centres unmarked) [Compound 8f, {[2,6-Dioxo-1-(2-oxo-2-phenyl-ethyl)-piperidin-3-ylcarbamoyl]-methyl}-Diheptyl-methyl-ammonium iodide] | > 20 µM | > 20 µM | 3.3 µM | > 20 µM
CCCCCCCCC[N+](C)(CCCCCCCCC)CC(=O)NC1CCC(=O)N(CC(=O)c2ccccc2)C1=O (centres unmarked) [Compound 8h, {[2,6-Dioxo-1-(2-oxo-2-phenyl-ethyl)-piperidin-3-ylcarbamoyl]-methyl}-Methyl-dinonyl-ammonium iodide] | 6.45 µM | 2.74 µM | 3.26 µM | 8.75 µM

— patent US10266564B2, “Cationic lipid cordiarimide hybrid compounds and a process for preparation thereof” (COUNCIL OF SCIENTIFIC & INDUSTRIAL RESEARCH, priority 2014, dated 2019)
